The values below come from PubChem BioAssay (NCI).

Some test systems named below: 786-0 renal; CCRF-CEM leukemia; EKVX NSCLC; HCC-2998 colon; HOP-62 NSCLC; K-562 leukemia; LOX IMVI melanoma; M14 melanoma; MALME-3M melanoma; MCF7 breast; MDA-MB-231 breast; MDA-MB-435; MDA-N; OVCAR-5 ovarian; RXF 393 renal; SNB-19 CNS; SW-620 colon; T-47D breast; TK-10 renal; HL-60(TB) leukemia.
What all share (experiment): growth of human tumour cells (NCI), 48 h

Molecules are shown by their SMILES.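 A five-concentration, 48-hour dose response in 96-well plates underlies each endpoint, interpolated linearly between surrounding concentrations. TGI: concentration producing complete growth inhibition.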

In the case of `COC(=O)CNC(=O)Nc1cc(N2C(=O)ON3C2C(C)(C)N(O)C3(C)C)ccc1C` (stereo not given), the TGI with 786-0 renal, in the assay on CCRF-CEM leukemia, in the assay on EKVX NSCLC, in the assay on HCC-2998 colon, with HOP-62 NSCLC and with K-562 leukemia was greater than 100 µM each time. In addition, the TGI with LOX IMVI melanoma, in the assay on M14 melanoma, with MALME-3M melanoma, with MCF7 breast, in the assay on MDA-MB-231 breast and in the assay on MDA-MB-435 was greater than 100 µM in each case. In addition, the TGI with MDA-N, in the assay on OVCAR-5 ovarian, with RXF 393 renal, with SNB-19 CNS, in the assay with SW-620 colon and with T-47D breast was greater than 100 µM in each case. This molecule also registered a TGI with TK-10 renal greater than 100 µM.
For the molecule `COc1cccc(-c2cc(=O)c3cccnc3[nH]2)c1`, the TGI in the assay with 786-0 renal, in the assay with CCRF-CEM leukemia, in the assay on EKVX NSCLC, in the assay on HOP-62 NSCLC, in the assay on K-562 leukemia and in the assay with LOX IMVI melanoma was greater than 100 µM in each case. The TGI is greater than 100 µM in the assay with M14 melanoma; greater than 100 µM in the assay on MALME-3M melanoma; greater than 100 µM with MCF7 breast; greater than 100 µM in the assay on MDA-MB-231 breast; 0.0855 µM in the assay with MDA-MB-435; 0.0394 µM in the assay on MDA-N. Further, the TGI in the assay on OVCAR-5 ovarian, with RXF 393 renal, in the assay with SNB-19 CNS, in the assay with SW-620 colon, in the assay with T-47D breast and with TK-10 renal was greater than 100 µM each time.
Regarding `O=C(/C=C/c1ccc(F)c(F)c1)OCCc1ccccc1`, the TGI in the assay with 786-0 renal, in the assay on CCRF-CEM leukemia, in the assay on EKVX NSCLC, with HCC-2998 colon, with HL-60(TB) leukemia and in the assay on HOP-62 NSCLC was greater than 100 µM each time. For the same molecule, the TGI in the assay with K-562 leukemia, in the assay with LOX IMVI melanoma, in the assay with M14 melanoma, in the assay on MALME-3M melanoma, in the assay on MCF7 breast and with MDA-MB-231 breast was greater than 100 µM throughout. The TGI with MDA-MB-435, in the assay with MDA-N, in the assay with OVCAR-5 ovarian, with SNB-19 CNS, with SW-620 colon and with T-47D breast was greater than 100 µM throughout. For the same molecule, the TGI in the assay on TK-10 renal was greater than 100 µM.
For `O=C(NNC(=O)c1ccccc1Cl)c1ccccc1O`, the TGI in the assay on 786-0 renal, in the assay on CCRF-CEM leukemia, with EKVX NSCLC, in the assay on HOP-62 NSCLC, with K-562 leukemia and in the assay with LOX IMVI melanoma was greater than 100 µM throughout. The TGI in the assay on M14 melanoma, in the assay with MALME-3M melanoma, in the assay with MCF7 breast, in the assay with MDA-MB-231 breast, with MDA-MB-435 and in the assay on MDA-N was greater than 100 µM in each case. The TGI with OVCAR-5 ovarian, in the assay with RXF 393 renal, with SNB-19 CNS, in the assay with SW-620 colon, in the assay on T-47D breast and in the assay on TK-10 renal was greater than 100 µM in each case.
On to `CCOC(=O)c1c(N2CCOCC2)[nH]c(=O)c(C(c2ccc(Cl)c([N+](=O)[O-])c2)c2c(O)c(C(=O)OCC)c(N3CCOCC3)[nH]c2=O)c1O`, for which the TGI with 786-0 renal is greater than 100 µM; in the assay on CCRF-CEM leukemia, 40.4 µM; with EKVX NSCLC it was greater than 100 µM; with HCC-2998 colon, greater than 100 µM; in the assay with HOP-62 NSCLC, greater than 100 µM; in the assay on K-562 leukemia, greater than 100 µM. The TGI in the assay with LOX IMVI melanoma is 48.1 µM; in the assay with M14 melanoma, 58.5 µM; in the assay on MALME-3M melanoma it was greater than 100 µM; in the assay on MCF7 breast it was 69.6 µM; in the assay on MDA-MB-231 breast it was 41.9 µM; in the assay with MDA-MB-435 it was greater than 100 µM. Moreover, the TGI with MDA-N was 70.1 µM; with OVCAR-5 ovarian it was greater than 100 µM; in the assay on RXF 393 renal, greater than 100 µM; with SNB-19 CNS, 79.3 µM; in the assay on SW-620 colon, 58.7 µM; in the assay with T-47D breast, 48.8 µM. This molecule returned a TGI in the assay with TK-10 renal greater than 100 µM.
For the molecule `Cc1ccccc1NC(=O)C(=O)Cc1cnc2ccccc2n1`, the TGI with 786-0 renal, in the assay with CCRF-CEM leukemia, in the assay with EKVX NSCLC, with HCC-2998 colon, in the assay on HL-60(TB) leukemia and with K-562 leukemia was greater than 100 µM in each case. In addition, the TGI in the assay with LOX IMVI melanoma, with M14 melanoma, in the assay with MALME-3M melanoma, in the assay on MCF7 breast, in the assay with MDA-MB-231 breast and in the assay on MDA-MB-435 was greater than 100 µM in each case. Besides, the TGI in the assay with MDA-N, with OVCAR-5 ovarian, in the assay on SNB-19 CNS, with SW-620 colon, in the assay with T-47D breast and with TK-10 renal was greater than 100 µM each time.
With `COC(=O)c1ccc(NCc2cc(O)ccc2O)cc1O`, the TGI is 21.5 µM in the assay with 786-0 renal; 27 µM with EKVX NSCLC; 26.7 µM with HCC-2998 colon; 4.21 µM in the assay with HL-60(TB) leukemia; 24.4 µM in the assay on HOP-62 NSCLC; greater than 79.3 µM in the assay on K-562 leukemia. For the same molecule, the TGI in the assay on LOX IMVI melanoma turned out to be 32.1 µM; in the assay on M14 melanoma, 31.7 µM; with MALME-3M melanoma it was 34.7 µM; in the assay on MCF7 breast, 21.6 µM; in the assay with MDA-MB-231 breast, 25.7 µM; in the assay with MDA-MB-435, 23.2 µM. Besides, the TGI with MDA-N came to 23.5 µM; with OVCAR-5 ovarian it was 31 µM; with RXF 393 renal, 21.6 µM; with SNB-19 CNS, 31.8 µM; with SW-620 colon, 19.9 µM; with T-47D breast, 37.5 µM. The same molecule had a TGI with TK-10 renal of 33.2 µM.
